PMC3173180 (The Journal of Biological Chemistry, 2011)

T1: IbpA-Fic1 (Histophilus somni, UniProt Q06277)
T1 sequence (Q06277 2994-3358): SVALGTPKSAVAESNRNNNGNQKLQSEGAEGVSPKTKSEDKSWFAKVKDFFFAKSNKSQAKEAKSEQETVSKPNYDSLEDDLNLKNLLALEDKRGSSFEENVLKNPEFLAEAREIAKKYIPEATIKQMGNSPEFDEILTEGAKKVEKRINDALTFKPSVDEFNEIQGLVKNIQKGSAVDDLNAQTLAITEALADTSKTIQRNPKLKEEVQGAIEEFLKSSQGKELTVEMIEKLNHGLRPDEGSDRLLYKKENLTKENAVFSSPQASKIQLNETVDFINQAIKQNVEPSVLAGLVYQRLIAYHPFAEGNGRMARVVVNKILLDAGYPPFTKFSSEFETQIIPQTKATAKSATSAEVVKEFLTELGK

T2: PfhB2-Fic1 (Pasteurella multocida, UniProt Q9CPH9)
T2 sequence (Q9CPH9 2892-3191): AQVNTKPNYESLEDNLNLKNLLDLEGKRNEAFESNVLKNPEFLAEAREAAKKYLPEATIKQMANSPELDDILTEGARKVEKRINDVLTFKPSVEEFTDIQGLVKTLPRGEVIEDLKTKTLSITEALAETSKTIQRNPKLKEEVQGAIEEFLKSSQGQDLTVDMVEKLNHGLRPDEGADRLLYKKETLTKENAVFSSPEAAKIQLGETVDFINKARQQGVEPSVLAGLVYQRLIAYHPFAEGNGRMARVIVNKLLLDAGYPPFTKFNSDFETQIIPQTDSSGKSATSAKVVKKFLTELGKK

T3: HYPE-Fic (Homo sapiens, UniProt Q9BVA6)
T3 sequence (Q9BVA6 181-458): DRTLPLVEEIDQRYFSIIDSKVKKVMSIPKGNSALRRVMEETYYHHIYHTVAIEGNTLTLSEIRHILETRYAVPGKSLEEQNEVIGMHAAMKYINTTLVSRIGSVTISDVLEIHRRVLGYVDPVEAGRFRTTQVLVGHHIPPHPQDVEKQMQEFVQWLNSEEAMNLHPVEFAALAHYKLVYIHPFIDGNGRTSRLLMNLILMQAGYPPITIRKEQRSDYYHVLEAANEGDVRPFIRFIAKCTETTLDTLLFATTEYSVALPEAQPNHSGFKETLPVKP

T4: PfhB2-Fic2 (Pasteurella multocida, UniProt Q9CPH9)
T4 sequence (Q9CPH9 3309-3609): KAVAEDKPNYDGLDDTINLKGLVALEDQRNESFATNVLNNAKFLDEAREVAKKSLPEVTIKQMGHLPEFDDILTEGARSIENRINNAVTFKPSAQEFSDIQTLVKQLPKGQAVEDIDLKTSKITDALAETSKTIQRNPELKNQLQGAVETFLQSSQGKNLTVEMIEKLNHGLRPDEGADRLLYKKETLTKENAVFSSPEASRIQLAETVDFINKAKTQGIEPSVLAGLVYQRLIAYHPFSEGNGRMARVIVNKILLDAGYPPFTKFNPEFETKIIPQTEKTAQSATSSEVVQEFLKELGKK

B1: IbpA-Fic2 (untagged) (Histophilus somni 2336) (protein)
chain: DETANKVNYQDLEDNLNLKGLISLEDDRNANFESNVLKNEKFLDEAREISKKSIPEATVKQMSHLPEFDDILTEGAKKVESRINKAITFRPSVEEFSEIQDLVKTLPKTKVIEDLSTKTNEITEALAATSKTIQRTPELKEQLKTAIEDFLQNSQGKPLTVQMIENLNHGLRPDEGEGRLLYKKENLTKENAVFSSPEAAKIQLAETVDFINRAKNEGIEPSVVGALVYQRLIAYHPFAEGNGRMARVIVNKILLDAGYPAFTKFSDEFEPQIIPQTKASTKSATSSEVVVEFLKELAKKGSKEDNEQNLEKTDRT

Tests used:
IbpA-Fic1 = molecular target: T1, IbpA-Fic1; test: SDS-PAGE autoradiography of modified Cdc42; assay type: biochemical
PfhB2-Fic1 = molecular target: T2, PfhB2-Fic1; test: SDS-PAGE autoradiography of modified Cdc42; assay type: biochemical
HYPE-Fic = molecular target: T3, HYPE-Fic; test: SDS-PAGE autoradiography of modified Cdc42; assay type: biochemical
PfhB2-Fic2 = molecular target: T4, PfhB2-Fic2; test: SDS-PAGE autoradiography of modified Cdc42; assay type: biochemical
purified protein = substrate: Nc1ncnc2c1ncn2[C@@H]1O[C@H](COP(=O)(O)OP(=O)(O)OP(=O)(O)O)[C@@H](O)[C@H]1O; test: purified protein; settings: pH 7.4; 25.0 °C

Molecule | SDS-PAGE autoradiography of modified Cdc42 (IbpA-Fic1) | SDS-PAGE autoradiography of modified Cdc42 (PfhB2-Fic1) | SDS-PAGE autoradiography of modified Cdc42 (HYPE-Fic) | SDS-PAGE autoradiography of modified Cdc42 (PfhB2-Fic2) | Km (purified protein) [mM] | kcat (purified protein) [s⁻¹]
Nc1ncnc2c1ncn2[C@@H]1O[C@H](COP(=O)(O)OP(=O)(O)OP(=O)(O)O)[C@@H](O)[C@H]1O [ATP] | ATP was the preferred nucleotide source for all the Fic domains tested | ATP was the preferred nucleotide source for all the Fic domains tested | HYPE-Fic efficiently uses ATP, and CTP to a lesser degree, to modify Cdc42 | ATP was the preferred nucleotide source for all the Fic domains tested | – | –
B1 | – | – | – | – | 0.73 ± 0.04 | 111 ± 2
